Molecules are shown by their SMILES.

This test deals with FP receptor (Homo sapiens (Human), UniProt P43088). Briefly: In vitro test of inhibition of human FP receptor activity (PGF2α-induced calcium flux in FP-expressing CHEM1 cells). In kind it is cell-based. To be noted: PGF2α-induced (2 nM) calcium flux in FP-expressing CHEM1 cells; some as mean values from multiple determinations. An excerpt: Table 1 below lists the IC50 values from this assay for individual working examples of the invention (some as mean values from multiple independent individual determinations): […]
FP receptor, sequence (P43088 whole entry): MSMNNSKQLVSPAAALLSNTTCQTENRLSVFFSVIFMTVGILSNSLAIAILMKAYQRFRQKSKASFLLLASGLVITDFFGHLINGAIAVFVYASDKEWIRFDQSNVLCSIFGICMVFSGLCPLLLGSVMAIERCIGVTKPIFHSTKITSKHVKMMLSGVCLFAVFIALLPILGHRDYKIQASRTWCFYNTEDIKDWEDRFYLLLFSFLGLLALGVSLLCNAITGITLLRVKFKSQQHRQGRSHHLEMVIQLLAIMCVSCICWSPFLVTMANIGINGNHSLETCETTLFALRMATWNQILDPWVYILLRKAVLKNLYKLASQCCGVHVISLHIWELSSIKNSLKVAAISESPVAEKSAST
In general terms: Calcium assays in cells follow changes in intracellular calcium, usually with a dye or a luminescent sensor.
Regarding `COc1ccccc1C(CNC(=O)c1c(C)c(-c2ccccc2)nc2ccc(Br)cc12)C(=O)O` (single isomer, unassigned; (+)) [Example 9, (+)-3-{[(6-Bromo-3-methyl-2-phenylquinolin-4-yl)carbonyl]amino}-2-(2-methoxyphenyl)propanoic Acid], the IC50 amounted to 7.2 nM.

On to `Cc1c(-c2ccccc2)nc2ccc(Br)cc2c1C(=O)NCC(C)(C(=O)O)c1ccccc1` (single isomer, unassigned; (+)) [Example 15, (+)-3-{[(6-Bromo-3-methyl-2-phenylquinolin-4-yl)carbonyl]amino}-2-methyl-2-phenylpropanoic Acid], for which the IC50 came out at 190 nM.

Consider `CCC(CNC(=O)c1c(C)c(-c2ccccc2)nc2ccc(Br)cc12)(C(=O)O)c1ccccc1` (single isomer, unassigned; (+)) [Example 18, (+)-2-({[(6-Bromo-3-methyl-2-phenylquinolin-4-yl)carbonyl]amino}methyl)-2-phenylbutanoic Acid], for which the IC50 was determined as 120 nM.

On to `Cc1c(-c2ccccc2)nc2ccc(Br)cc2c1C(=O)NCC(O)(C(=O)O)c1ccccc1` (single isomer, unassigned; (+)) [Example 20, (+)-3-{[(6-Bromo-3-methyl-2-phenylquinolin-4-yl)carbonyl]amino}-2-hydroxy-2-phenylpropanoic Acid], for which the IC50 came out at 97 nM.

For the compound `Cc1c(-c2ccccc2)nc2ccc(Br)cc2c1C(=O)NCC(C)(C(=O)O)c1ccccc1F` (single isomer, unassigned; (+)) [Example 30, (+)-3-{[(6-Bromo-3-methyl-2-phenylquinolin-4-yl)carbonyl]amino}-2-(2-fluorophenyl)-2-methylpropanoic Acid], the IC50 was 340 nM.

With `Cc1c(-c2ccccc2)nc2ccc(Br)cc2c1C(=O)NCC(C)(C(=O)O)c1c(F)cccc1F` (single isomer, unassigned; (+)) [Example 33, (+)-3-{[(6-Bromo-3-methyl-2-phenylquinolin-4-yl)carbonyl]amino}-2-(2,6-difluorophenyl)-2-methylpropanoic Acid], the half-maximal inhibitory concentration (IC50) amounted to 190 nM.

`Cc1c(-c2ccccc2)nc2ccc(Br)cc2c1C(=O)NCC(C)(C(=O)O)c1ccccc1Cl` (single isomer, unassigned; (+)) [Example 37, (+)-3-{[(6-Bromo-3-methyl-2-phenylquinolin-4-yl)carbonyl]amino}-2-(2-chlorophenyl)-2-methylpropanoic Acid]: the IC50 was 160 nM.

For the compound `Cc1c(-c2ccccc2)nc2ccc(Br)cc2c1C(=O)NCC(F)(C(=O)O)c1ccccc1` (single isomer, unassigned; (+)) [Example 40, (+)-3-{[(6-Bromo-3-methyl-2-phenylquinolin-4-yl)carbonyl]amino}-2-fluoro-2-phenylpropanoic Acid], the IC50 was 34 nM.

As to `Cc1c(-c2ccccc2)nc2ccc(Br)cc2c1C(=O)NCC(C)(C(=O)O)c1cccc(C(F)(F)F)c1` (single isomer, unassigned; (+)) [Example 43, (+)-3-{[(6-Bromo-3-methyl-2-phenylquinolin-4-yl)carbonyl]amino}-2-methyl-2-[3-(trifluoromethyl)phenyl]propanoic Acid], the half-inhibitory concentration (IC50) came out at 140 nM.

`COc1cccc(C(CNC(=O)c2c(C)c(-c3ccccc3)nc3ccc(Br)cc23)C(=O)O)c1` (single isomer, unassigned; (+)) [Example 46, (+)-3-{[(6-Bromo-3-methyl-2-phenylquinolin-4-yl)carbonyl]amino}-2-(3-methoxyphenyl)propanoic Acid]: the IC50 turned out to be 230 nM.

With `Cc1c(-c2ccccc2)nc2ccc(Br)cc2c1C(=O)NCC(C(=O)O)c1cccc(Cl)c1` (single isomer, unassigned; (+)) [Example 49, (+)-3-{[(6-Bromo-3-methyl-2-phenylquinolin-4-yl)carbonyl]amino}-2-(3-chlorophenyl)propanoic Acid], the half-maximal inhibitory concentration (IC50) was found to be 69 nM.

On to `Cc1cccc(C(CNC(=O)c2c(C)c(-c3ccccc3)nc3ccc(Br)cc23)C(=O)O)c1` (single isomer, unassigned; (+)) [Example 52, (+)-3-{[(6-Bromo-3-methyl-2-phenylquinolin-4-yl)carbonyl]amino}-2-(3-methylphenyl)propanoic Acid], for which the half-maximal inhibitory concentration (IC50) was found to be 71 nM.

Turning to `COc1ccccc1C(O)(CNC(=O)c1c(C)c(-c2ccccc2)nc2ccc(Br)cc12)C(=O)O` (single isomer, unassigned; (+)) [Example 55, (+)-3-{[(6-Bromo-3-methyl-2-phenylquinolin-4-yl)carbonyl]amino}-2-hydroxy-2-(2-methoxyphenyl)propanoic Acid], the concentration for half-maximal inhibition (IC50) is 78 nM.

For `COc1cccc(F)c1C(CNC(=O)c1c(C)c(-c2ccccc2)nc2ccc(Br)cc12)C(=O)O` (single isomer, unassigned; (+)) [Example 58, (+)-3-{[(6-Bromo-3-methyl-2-phenylquinolin-4-yl)carbonyl]amino}-2-(2-fluoro-6-methoxyphenyl)propanoic Acid], the IC50 came to 9.7 nM.

With `COc1ccccc1C(C)(CNC(=O)c1c(C)c(-c2ccccc2)nc2ccc(Br)cc12)C(=O)O` (single isomer, unassigned; (+)) [Example 60, (+)-3-{[(6-Bromo-3-methyl-2-phenylquinolin-4-yl)carbonyl]amino}-2-(2-methoxyphenyl)-2-methylpropanoic Acid], the IC50 was determined as 120 nM.

With `Cc1c(-c2ccccc2)nc2ccc(Br)cc2c1C(=O)NCC(C)(C(=O)O)c1c(F)cccc1Cl` (single isomer, unassigned; (+)) [Example 61, (+)-3-{[(6-Bromo-3-methyl-2-phenylquinolin-4-yl)carbonyl]amino}-2-(2-chloro-6-fluorophenyl)-2-methylpropanoic Acid], the 50% inhibitory concentration (IC50) was found to be 230 nM.

Turning to `Cc1c(-c2ccccc2)nc2ccc(Br)cc2c1C(=O)NCC(CC(=O)O)c1ccccc1` (single isomer, unassigned; (+)) [Example 65, (+)-4-{[(6-Bromo-3-methyl-2-phenylquinolin-4-yl)carbonyl]amino}-3-phenylbutanoic Acid], the IC50 came to 220 nM.

As for `Cc1c(-c2ccccc2)nc2ccc(Br)cc2c1C(=O)NCC(CC(=O)O)c1ccc(Cl)cc1` (single isomer, unassigned; (+)) [Example 67, (+)-4-{[(6-Bromo-3-methyl-2-phenylquinolin-4-yl)carbonyl]amino}-3-(4-chlorophenyl)butanoic Acid], the IC50 came to 370 nM.

On to `Cc1ccccc1C(CNC(=O)c1c(C)c(-c2ccccc2)nc2ccc(Br)cc12)CC(=O)O` (single isomer, unassigned; (+)) [Example 77, (+)-4-{[(6-Bromo-3-methyl-2-phenylquinolin-4-yl)carbonyl]amino}-3-(2-methylphenyl)butanoic Acid], for which the half-maximal inhibitory concentration (IC50) amounted to 85 nM.

In the case of `Cc1c(-c2ccccc2)nc2ccc(Br)cc2c1C(=O)NCC(C)(CC(=O)O)c1ncccc1Cl` (single isomer, unassigned; (+)) [Example 86, (+)-4-{[(6-Bromo-3-methyl-2-phenylquinolin-4-yl)carbonyl]amino}-3-(3-chloropyridin-2-yl)-3-methylbutanoic Acid], the concentration for half-maximal inhibition (IC50) turned out to be 240 nM.

Turning to `Cc1c(-c2ccccc2)nc2ccc(Br)cc2c1C(=O)NCC(CC(=O)O)c1c(F)cccc1Cl` (single isomer, unassigned; (+)) [Example 89, (+)-4-{[(6-Bromo-3-methyl-2-phenylquinolin-4-yl)carbonyl]amino}-3-(2-chloro-6-fluorophenyl)butanoic Acid], the half-inhibitory concentration (IC50) came out at 27 nM.

Consider `Cc1ccc(C(CNC(=O)c2c(C)c(-c3ccccc3)nc3ccc(Br)cc23)CC(=O)O)cc1` (single isomer, unassigned; (+)) [Example 91, (+)-4-{[(6-Bromo-3-methyl-2-phenylquinolin-4-yl)carbonyl]amino}-3-(4-methylphenyl)butanoic Acid], for which the IC50 was found to be 460 nM.

On to `Cc1c(-c2ccccc2)nc2ccc(Br)cc2c1C(=O)NCC(CC(=O)O)c1ccccc1OC(F)(F)F` (single isomer, unassigned; (+)) [Example 101, (+)-4-{[(6-Bromo-3-methyl-2-phenylquinolin-4-yl)carbonyl]amino}-3-[2-(trifluoromethoxy)phenyl]butanoic Acid], for which the half-inhibitory concentration (IC50) is 32 nM.

As to `Cc1c(-c2ccccc2)nc2ccc(Br)cc2c1C(=O)NCC(CC(=O)O)c1ccccn1` (single isomer, unassigned; (+)) [Example 104, (+)-4-{[(6-Bromo-3-methyl-2-phenylquinolin-4-yl)carbonyl]amino}-3-(pyridin-2-yl)butanoic Acid], the IC50 is above 1000 nM.

Consider `Cc1c(-c2ccccc2)nc2ccc(Br)cc2c1C(=O)NCC(CC(=O)O)c1ccccc1C(F)(F)F` (single isomer, unassigned; (+)) [Example 106, (+)-4-{[(6-Bromo-3-methyl-2-phenylquinolin-4-yl)carbonyl]amino}-3-[2-(trifluoromethyl)phenyl]butanoic Acid], for which the IC50 turned out to be 280 nM.

For the compound `COc1cccnc1C(CNC(=O)c1c(C)c(-c2ccccc2)nc2ccc(Br)cc12)CC(=O)O` (single isomer, unassigned; (+)) [Example 110, (+)-4-{[(6-Bromo-3-methyl-2-phenylquinolin-4-yl)carbonyl]amino}-3-(3-methoxypyridin-2-yl)butanoic Acid], the 50% inhibitory concentration (IC50) was found to be 75 nM.

Consider `Cc1c(-c2ccccc2)nc2ccc(Br)cc2c1C(=O)NCC(C)(CC(=O)O)c1ccccc1F` (single isomer, unassigned; (+)) [Example 115, (+)-4-{[(6-Bromo-3-methyl-2-phenylquinolin-4-yl)carbonyl]amino}-3-(2-fluorophenyl)-3-methylbutanoic Acid], for which the half-inhibitory concentration (IC50) came to 31 nM.

For the compound `Cc1c(-c2ccccc2)nc2ccc(Br)cc2c1C(=O)NCC(C)(CC(=O)O)c1ccccn1` (single isomer, unassigned; (+)) [Example 118, (+)-4-{[(6-Bromo-3-methyl-2-phenylquinolin-4-yl)carbonyl]amino}-3-methyl-3-(pyridin-2-yl)butanoic Acid], the IC50 is 280 nM.

As usually defined, the IC50 is the concentration that inhibits the measured activity by half.

Values taken from patent US11136296B2, “Substituted N-arylethyl-2-arylquinoline-4-carboxamides and use thereof” (Bayer Aktiengesellschaft, priority 2017, dated 2021).
